Test results as given in patent US11267795B2, “Crystalline PPAR-delta agonist” (Reneo Pharmaceuticals, Inc., priority 2020, dated 2022).
Marks after values point to notes of the source that are not given here.

Columns and labels:
[1] = Stability of solid state forms under static storage, re-analysed by XRPD; type: physicochemical
Method: Crystalline Form 1 of Compound II (4 g) was placed in a crystallization dish and stored in a stability chamber at 25° C./97% RH. XRPD analysis was regularly performed to verify the conversion to Form 2. Complete conversion was observed after 4 weeks at 25° C./97% RH.
Samples were assessed for stability under ambient or static storage conditions of 25° C./97% RH and 40° C./75% RH for 7 or 10 days. The samples were then re-analyzed by XRPD.
Results of the subsequent XRPD analysis for the crystalline forms are described in the following table: […]

[2] = Stability of solid forms on drying, vacuum or standing (XRPD); type: physicochemical
Method: Crystalline Hydrate Form 2 of Compound II was portioned into two and half was placed in the vacuum oven at RT. After 24 h the sample was analyzed by XRPD. Some small differences between the XRPD pattern and the Form 2 reference were noted. After 4 days in the vacuum oven complete conversion was observed.

[3] = Gravimetric Vapor Sorption (GVS) with XRPD re-analysis; type: physicochemical; details: for Reversible Water Uptake between 0-90% RH: GVS, 25° C.; for Solid State Form After GVS (XRPD): after isotherm experiment at 90% RH and 25° C.
Method: Sorption isotherms were obtained using a SMS DVS Intrinsic moisture sorption analyzer, controlled by DVS Intrinsic Control software. The sample temperature was maintained at 25° C. by the instrument controls. The humidity was controlled by mixing streams of dry and wet nitrogen, with a total flow rate of 200 ml/min. The relative humidity was measured by a calibrated Rotronic probe (dynamic range of 1.0-100% RH), located near the sample. The weight change, (mass relaxation) of the sample as a function of % RH was constantly monitored by a microbalance (accuracy ±0.005 mg).
Typically, 5-30 mg of sample was placed in a tared mesh stainless steel basket under ambient conditions. The sample was loaded and unloaded at 40% RH and 25° C. (typical room conditions). A moisture sorption isotherm was performed as outlined below (2 scans per complete cycle). The standard isotherm was performed at 25° C. at 10% RH intervals over a 0-90% RH range. Typically, a double cycle (4 scans) was carried out. Data analysis was carried out within Microsoft Excel using the DVS Analysis Suite.
The method for SMS DVS Intrinsic experiments is outlined in the following table:
Reversible water uptake for the crystalline forms and patterns as determined by Gravimetric Vapor Sorption (GVS) are as described in the following table:
The samples were recovered after completion of the isotherm experiment at […] and 25° C. and re-analyzed by XRPD.

mice = details: cited from earlier work
[4] = Variable temperature XRPD (heating); type: physicochemical; details: heating to 110° C.
Method: For variable temperature (VT-XRPD) experiments the samples were prepared and analyzed in an Anton Paar chromed sample holder. A heating/cooling rate of 10° C./min was used with a 2 min isothermal hold before the measurement started. The measurement parameters are as per the standard screening data collection method (detailed above). Measurements were taken at the following temperatures: […]

Cc1cc(OC/C=C(/c2ccc(F)cc2)c2ccc(C#CCN3CCOCC3)cc2)ccc1OCC(=O)[O-].[Na+] [amorphous, sodium (E)-2-(4-((3-(4-fluorophenyl)-3-(4-(3-morpholinoprop-1-yn-1-yl)phenyl)allyl)oxy)-2-methylphenoxy)acetate]
change in XRPD after storage ([1]; ambient storage conditions for 24 hours, 48 hours, 7 days, or 10 days): no change | change in XRPD after storage ([1]; static storage of 40° C./75% RH for 10 days): no change

Cc1cc(OC/C=C(/c2ccc(F)cc2)c2ccc(C#CCN3CCOCC3)cc2)ccc1OCC(=O)[O-].[Na+] [Pattern 8, sodium (E)-2-(4-((3-(4-fluorophenyl)-3-(4-(3-morpholinoprop-1-yn-1-yl)phenyl)allyl)oxy)-2-methylphenoxy)acetate]
solid form stability on drying [2]: converts to Form 1

Cc1cc(OC/C=C(/c2ccc(F)cc2)c2ccc(C#CCN3CCOCC3)cc2)ccc1OCC(=O)[O-].[Na+] [Form 2, sodium (E)-2-(4-((3-(4-fluorophenyl)-3-(4-(3-morpholinoprop-1-yn-1-yl)phenyl)allyl)oxy)-2-methylphenoxy)acetate]
time to complete conversion to Pattern 9 ([2]; vacuum oven at RT): 4 days | Reversible Water Uptake between 0-90% RH [3]: ~25% | Solid State Form After GVS (XRPD) [3]: Unchanged (Form 2) | solid state form by XRPD after storage ([1]; 25° C./97% RH/7 days): Unchanged (Form 2) | solid state form by XRPD after storage ([1]; 40° C./75% RH/7 days): Unchanged (Form 2)

Cc1cc(OC/C=C(/c2ccc(F)cc2)c2ccc(C#CCN3CCOCC3)cc2)ccc1OCC(=O)[O-].[Na+] [Form 1, sodium (E)-2-(4-((3-(4-fluorophenyl)-3-(4-(3-morpholinoprop-1-yn-1-yl)phenyl)allyl)oxy)-2-methylphenoxy)acetate]
Reversible Water Uptake between 0-90% RH [3]: ~13.0% † | Solid State Form After GVS (XRPD) [3]: Unchanged (Form 1) | solid state form by XRPD after storage ([1]; 25° C./97% RH/7 days): Form 2 | solid state form by XRPD after storage ([1]; 40° C./75% RH/7 days): Unchanged (Form 1) | time to complete conversion to Form 2 ([1]; stability chamber at 25° C./97% RH, 4 g): 4 weeks

Cc1cc(OC/C=C(/c2ccc(F)cc2)c2ccc(C#CCN3CCOCC3)cc2)ccc1OCC(=O)[O-].[Na+] [Form 5, sodium (E)-2-(4-((3-(4-fluorophenyl)-3-(4-(3-morpholinoprop-1-yn-1-yl)phenyl)allyl)oxy)-2-methylphenoxy)acetate]
solid form stability on drying [2]: converts to Form 1 | Reversible Water Uptake between 0-90% RH [3]: ~11% | Solid State Form After GVS (XRPD) [3]: Form 1

Cc1cc(SCc2sc(-c3ccc(C(F)(F)F)cc3)nc2C)ccc1OCC(=O)O [GW1516]
energy substrate usage (mice; 8 weeks treatment): a clear shift in energy substrate usage from glucose to fatty acid oxidation | physical performance (mice; in combination with exercise, 4 weeks): enhanced physical performance

Cc1cc(OC/C=C(/c2ccc(F)cc2)c2ccc(C#CCN3CCOCC3)cc2)ccc1OCC(=O)[O-].[Na+] [Pattern 9, sodium (E)-2-(4-((3-(4-fluorophenyl)-3-(4-(3-morpholinoprop-1-yn-1-yl)phenyl)allyl)oxy)-2-methylphenoxy)acetate]
Reversible Water Uptake between 0-90% RH [3]: ~27% | Solid State Form After GVS (XRPD) [3]: Unchanged (Pattern 9)

Cc1cc(OC/C=C(/c2ccc(F)cc2)c2ccc(C#CCN3CCOCC3)cc2)ccc1OCC(=O)[O-].[Na+] [Pattern 5, sodium (E)-2-(4-((3-(4-fluorophenyl)-3-(4-(3-morpholinoprop-1-yn-1-yl)phenyl)allyl)oxy)-2-methylphenoxy)acetate]
solid form stability [2]: unstable

Cc1cc(OC/C=C(/c2ccc(F)cc2)c2ccc(C#CCN3CCOCC3)cc2)ccc1OCC(=O)[O-].[Na+] [Form 3, sodium (E)-2-(4-((3-(4-fluorophenyl)-3-(4-(3-morpholinoprop-1-yn-1-yl)phenyl)allyl)oxy)-2-methylphenoxy)acetate]
solid form stability on drying [2]: converts to Form 1 | solid form stability on standing ([2]; standing in ambient conditions): converts to Form 1 | Reversible Water Uptake between 0-90% RH [3]: ~9.0% | Solid State Form After GVS (XRPD) [3]: Form 1 | solid state form by XRPD after storage ([1]; 40° C./75% RH/7 days): Form 1

Cc1cc(OC/C=C(/c2ccc(F)cc2)c2ccc(C#CCN3CCOCC3)cc2)ccc1OCC(=O)[O-].[Na+] [Form 4, sodium (E)-2-(4-((3-(4-fluorophenyl)-3-(4-(3-morpholinoprop-1-yn-1-yl)phenyl)allyl)oxy)-2-methylphenoxy)acetate]
XRPD after heating [4]: unchanged XRPD | Reversible Water Uptake between 0-90% RH [3]: ~23% | Solid State Form After GVS (XRPD) [3]: Form 2 | solid state form by XRPD after storage ([1]; 25° C./97% RH/7 days): Form 2 | solid state form by XRPD after storage ([1]; 40° C./75% RH/7 days): Form 1
